Earlier results in patent publication US20240124428A1, “HETEROCYCLIC INHIBITORS OF PCSK9” (CARDIO THERAPEUTICS PTY LTD, priority 2020, published 2024).
Marks after values point to notes of the source that are not given here.

Columns and labels:
CYP3A4 = target: T1, CYP3A4 (Homo sapiens, UniProt P08684); details: data from Evison et al. 2020; cited from earlier work
T1 construct: using human liver microsomes; from tissue; host or cells: human liver microsomes

[1] = data from Evison et al. 2020; conditions not given; cited from earlier work
[2] = target: T2, binding between PCSK9 and the LDL receptor (Homo sapiens, UniProt Q8NBP7); details: comparator; data from Evison et al. 2020; read-out: PCSK9-LDLR binding assay IC50; cited from earlier work
T2 construct: purchased CircuLex
T2 sequence (Q8NBP7 153-692): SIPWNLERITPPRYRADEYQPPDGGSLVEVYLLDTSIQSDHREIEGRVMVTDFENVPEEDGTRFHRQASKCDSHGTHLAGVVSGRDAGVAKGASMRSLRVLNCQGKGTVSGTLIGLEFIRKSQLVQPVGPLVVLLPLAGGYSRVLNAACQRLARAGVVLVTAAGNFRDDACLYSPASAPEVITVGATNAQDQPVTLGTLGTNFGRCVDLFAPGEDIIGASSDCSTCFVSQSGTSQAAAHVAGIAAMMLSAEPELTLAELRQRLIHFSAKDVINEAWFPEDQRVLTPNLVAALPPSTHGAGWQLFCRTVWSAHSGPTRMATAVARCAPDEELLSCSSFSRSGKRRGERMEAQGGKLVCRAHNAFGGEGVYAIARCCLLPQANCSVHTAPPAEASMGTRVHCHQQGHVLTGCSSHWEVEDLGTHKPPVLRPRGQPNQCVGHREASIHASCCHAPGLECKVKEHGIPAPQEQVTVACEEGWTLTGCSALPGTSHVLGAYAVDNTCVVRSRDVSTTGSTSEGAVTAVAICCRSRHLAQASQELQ
T2 sequence (Q8NBP7 31-152 partner limits assumed): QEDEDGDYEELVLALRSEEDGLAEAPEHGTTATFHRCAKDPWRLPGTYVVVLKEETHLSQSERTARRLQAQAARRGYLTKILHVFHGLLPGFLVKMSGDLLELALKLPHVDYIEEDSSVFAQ

CYP2D6 = target: T3, CYP2D6 (Homo sapiens, UniProt P10635); details: data from Evison et al. 2020; cited from earlier work
T3 construct: using human liver microsomes; from tissue; host or cells: human liver microsomes
T3 sequence (P10635 whole entry): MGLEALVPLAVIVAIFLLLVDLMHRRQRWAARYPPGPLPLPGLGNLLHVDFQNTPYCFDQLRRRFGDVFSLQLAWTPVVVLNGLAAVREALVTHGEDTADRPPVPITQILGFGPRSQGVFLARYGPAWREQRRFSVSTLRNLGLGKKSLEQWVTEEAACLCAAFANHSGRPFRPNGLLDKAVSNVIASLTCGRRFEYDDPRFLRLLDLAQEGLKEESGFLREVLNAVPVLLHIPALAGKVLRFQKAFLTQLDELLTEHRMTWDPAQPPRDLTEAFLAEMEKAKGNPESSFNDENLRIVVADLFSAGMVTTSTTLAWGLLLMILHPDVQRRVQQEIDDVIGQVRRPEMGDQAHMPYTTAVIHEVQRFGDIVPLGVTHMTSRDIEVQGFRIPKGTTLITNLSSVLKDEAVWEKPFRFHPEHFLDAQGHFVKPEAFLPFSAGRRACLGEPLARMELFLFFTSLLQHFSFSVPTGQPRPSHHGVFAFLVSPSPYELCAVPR

hERG channel = target: T4, hERG channel (Homo sapiens, UniProt Q12809); details: data from Evison et al. 2020; cited from earlier work
T4 construct: expressed in transfected cells; host or cells: CHO
T4 sequence (Q12809 whole entry): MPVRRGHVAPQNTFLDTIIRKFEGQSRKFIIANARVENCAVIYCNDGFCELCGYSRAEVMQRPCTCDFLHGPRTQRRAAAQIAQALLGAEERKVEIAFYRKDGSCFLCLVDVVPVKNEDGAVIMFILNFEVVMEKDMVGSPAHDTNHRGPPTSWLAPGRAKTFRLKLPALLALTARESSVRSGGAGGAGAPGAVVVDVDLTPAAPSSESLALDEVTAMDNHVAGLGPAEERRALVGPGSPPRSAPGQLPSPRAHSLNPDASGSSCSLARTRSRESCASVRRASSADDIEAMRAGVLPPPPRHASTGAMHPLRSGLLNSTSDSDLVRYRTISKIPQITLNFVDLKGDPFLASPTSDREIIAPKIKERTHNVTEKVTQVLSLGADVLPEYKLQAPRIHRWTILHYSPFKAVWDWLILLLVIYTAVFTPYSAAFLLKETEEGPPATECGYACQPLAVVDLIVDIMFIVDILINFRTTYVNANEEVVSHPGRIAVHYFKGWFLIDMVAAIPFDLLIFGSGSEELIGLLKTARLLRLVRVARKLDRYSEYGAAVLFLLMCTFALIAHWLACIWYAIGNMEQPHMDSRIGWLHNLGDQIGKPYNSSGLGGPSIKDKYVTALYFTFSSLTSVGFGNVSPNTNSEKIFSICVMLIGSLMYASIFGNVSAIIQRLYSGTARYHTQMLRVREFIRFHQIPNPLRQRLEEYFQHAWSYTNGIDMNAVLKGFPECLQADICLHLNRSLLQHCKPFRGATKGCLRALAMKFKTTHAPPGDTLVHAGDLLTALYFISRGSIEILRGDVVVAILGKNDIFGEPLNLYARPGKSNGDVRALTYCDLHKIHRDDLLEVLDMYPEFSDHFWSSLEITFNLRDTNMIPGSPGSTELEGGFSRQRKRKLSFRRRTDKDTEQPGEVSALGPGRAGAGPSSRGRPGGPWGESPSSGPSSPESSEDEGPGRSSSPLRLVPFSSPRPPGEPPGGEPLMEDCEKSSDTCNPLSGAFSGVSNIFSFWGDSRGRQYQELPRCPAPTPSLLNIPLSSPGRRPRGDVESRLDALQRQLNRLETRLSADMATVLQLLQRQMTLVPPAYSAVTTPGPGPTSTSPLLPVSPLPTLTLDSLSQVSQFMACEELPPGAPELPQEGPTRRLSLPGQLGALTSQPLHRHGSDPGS

HepG2 cells = details: data from Evison et al. 2020; read-out: HepG2 cytotoxicity IC50; cited from earlier work

T1 sequence (P08684 whole entry): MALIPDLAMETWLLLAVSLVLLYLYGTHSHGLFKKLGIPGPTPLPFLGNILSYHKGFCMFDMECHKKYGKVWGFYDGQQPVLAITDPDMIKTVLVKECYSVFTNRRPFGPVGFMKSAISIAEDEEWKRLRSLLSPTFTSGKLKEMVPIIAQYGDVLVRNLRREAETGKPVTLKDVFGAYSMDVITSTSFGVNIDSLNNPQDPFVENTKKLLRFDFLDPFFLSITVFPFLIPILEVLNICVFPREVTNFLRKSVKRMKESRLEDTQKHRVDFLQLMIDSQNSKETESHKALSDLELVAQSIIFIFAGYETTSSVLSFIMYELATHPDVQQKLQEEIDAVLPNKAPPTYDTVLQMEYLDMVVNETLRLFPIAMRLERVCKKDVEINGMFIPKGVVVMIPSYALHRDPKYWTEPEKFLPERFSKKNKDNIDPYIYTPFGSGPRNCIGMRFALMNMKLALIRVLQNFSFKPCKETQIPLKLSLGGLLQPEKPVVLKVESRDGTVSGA

Cc1cn(-c2cc(CN3CCC[C@H](N)C3)cc(NC(=O)c3ccc(C)c(Oc4ccccc4)c3)c2)cn1 [3f]
CYP3A4 (% inhibition at 10 μM) (CYP3A4): 95.0%
AUClast (h*ng/ml) [1]: 92.3** h*ng/ml
Bioavailability (%) [1]: 0.5** %
CMax (ng/ml) [1]: 52.5** ng/ml
VSS (L/kg) [1]: 3.87** L/kg
IC50 [2]: 0.939 µM
CYP2D6 (% inhibition at 10 μM) (CYP2D6): 82.2%
IC50 (hERG channel): 19 µM
IC50 (HepG2 cells): 5.23 µM
